According to paper PMC10746543, “Design principles for cyclin K molecular glue degraders” (Nature Chemical Biology, 2023):
Several values for one entry are separate records, joined by “and”; a condition that tells them apart may be missing. Identical values can stand only once. Like-named read-outs stand apart in the source and are kept apart here.

How the values were obtained:
[1] = molecular target: T1, CDK12–cyclin K and DDB1 (Homo sapiens, UniProt Q16531+Q9NYV4, K965R); test: TR-FRET ternary complex formation assay (compound titration); type: binding; conditions: for EC50: read-out: TR-FRET EC50
T1 construct: His6–CDK12 (a.a. 713–1,052); full-length or beta-propeller B domain deletion (ΔBPB: a.a. 396–705 deleted) constructs of His6–DDB1ΔBPB, StrepII–Avi–DDB1, or His6–Spy–DDB1; made in house; host or cells: Trichoplusia ni High Five insect cells (baculovirus)
Summary of the method: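 Signal was the ratio of 520 nm to 490 nm fluorescence, measured after a 70 μs delay that reduced background.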

[2] = tested on: cyclin K–eGFP degradation reporter; test: Cyclin K reporter stability analysis (dual-color cyclin K–eGFP reporter); type: cell-based, human; conditions: source data sheet correlations; read-out: DC50
Summary of the method: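 First, reporter-bearing HEK293T–Cas9 cells are plated at 1 × 10^6 ml^−1. Next, drug or vehicle is added for 5 h. Finally, geometric-mean eGFP and mCherry signals of round, mCherry-positive cells are measured cytometrically, and their ratio is referenced to the DMSO average.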

[3] = tested on: HEK293T cells; test: Drug sensitivity assay (CellTiter-Glo viability) with or without MLN4924 pretreatment; type: cell-based, human; conditions: Supplementary Table 2
Summary of the method: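 HEK293T–Cas9, 0.15 × 10^6 ml^−1; pretreat DMSO vs 100 nM MLN4924; drugs dispensed after 2 h; 3 d exposure; CellTiter-Glo; viability vs DMSO control.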

[4] = molecular target: CDK12–cyclin K (Homo sapiens, UniProt Q9NYV4); test: Lanthascreen kinase binding assay, CDK12; conditions: for Lanthascreen raw signal, sheet CDK12: series r37, duplicates
Description: (§1) Lanthascreen experiments were performed using commercially available reagents (Thermo Fisher) and according to the manufacturer’s instructions.

[5] = molecular target: T2, CDK9–cyclin T (Homo sapiens, UniProt P50750); test: Lanthascreen kinase binding assay, CDK9; conditions: for Lanthascreen TR-FRET signal (raw ratio), sheet CDK9: third titration set (r25), duplicates
T2 construct: purchased Thermo Fisher
Description: as §1

[6] = molecular target: T3, CDK2–cyclin A (Homo sapiens, UniProt P24941); test: Lanthascreen kinase binding assay, CDK2; conditions: for Lanthascreen signal, sheet CDK2: raw replicates, experiment r36-r46
T3 construct: purchased Thermo Fisher
Description: as §1

T1 sequence (Q9NYV4 713-1052 K965R): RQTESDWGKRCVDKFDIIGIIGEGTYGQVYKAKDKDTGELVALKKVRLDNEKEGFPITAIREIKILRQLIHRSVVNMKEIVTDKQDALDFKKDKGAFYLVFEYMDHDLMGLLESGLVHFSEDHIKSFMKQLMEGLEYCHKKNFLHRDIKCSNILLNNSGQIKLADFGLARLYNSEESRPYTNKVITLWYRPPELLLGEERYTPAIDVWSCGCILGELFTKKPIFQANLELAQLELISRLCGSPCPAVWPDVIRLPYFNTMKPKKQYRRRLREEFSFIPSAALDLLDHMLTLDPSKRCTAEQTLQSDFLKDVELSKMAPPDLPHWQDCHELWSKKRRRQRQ
T1 sequence (O75909 1-267 partner): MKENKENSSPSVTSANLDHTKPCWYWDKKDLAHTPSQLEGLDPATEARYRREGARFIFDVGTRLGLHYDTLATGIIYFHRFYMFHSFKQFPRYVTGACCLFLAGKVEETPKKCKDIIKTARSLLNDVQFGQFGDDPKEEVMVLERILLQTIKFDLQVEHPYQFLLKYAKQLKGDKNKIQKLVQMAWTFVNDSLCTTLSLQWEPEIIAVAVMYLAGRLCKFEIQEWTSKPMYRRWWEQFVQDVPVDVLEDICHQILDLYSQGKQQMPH
T1 sequence (Q16531 whole entry): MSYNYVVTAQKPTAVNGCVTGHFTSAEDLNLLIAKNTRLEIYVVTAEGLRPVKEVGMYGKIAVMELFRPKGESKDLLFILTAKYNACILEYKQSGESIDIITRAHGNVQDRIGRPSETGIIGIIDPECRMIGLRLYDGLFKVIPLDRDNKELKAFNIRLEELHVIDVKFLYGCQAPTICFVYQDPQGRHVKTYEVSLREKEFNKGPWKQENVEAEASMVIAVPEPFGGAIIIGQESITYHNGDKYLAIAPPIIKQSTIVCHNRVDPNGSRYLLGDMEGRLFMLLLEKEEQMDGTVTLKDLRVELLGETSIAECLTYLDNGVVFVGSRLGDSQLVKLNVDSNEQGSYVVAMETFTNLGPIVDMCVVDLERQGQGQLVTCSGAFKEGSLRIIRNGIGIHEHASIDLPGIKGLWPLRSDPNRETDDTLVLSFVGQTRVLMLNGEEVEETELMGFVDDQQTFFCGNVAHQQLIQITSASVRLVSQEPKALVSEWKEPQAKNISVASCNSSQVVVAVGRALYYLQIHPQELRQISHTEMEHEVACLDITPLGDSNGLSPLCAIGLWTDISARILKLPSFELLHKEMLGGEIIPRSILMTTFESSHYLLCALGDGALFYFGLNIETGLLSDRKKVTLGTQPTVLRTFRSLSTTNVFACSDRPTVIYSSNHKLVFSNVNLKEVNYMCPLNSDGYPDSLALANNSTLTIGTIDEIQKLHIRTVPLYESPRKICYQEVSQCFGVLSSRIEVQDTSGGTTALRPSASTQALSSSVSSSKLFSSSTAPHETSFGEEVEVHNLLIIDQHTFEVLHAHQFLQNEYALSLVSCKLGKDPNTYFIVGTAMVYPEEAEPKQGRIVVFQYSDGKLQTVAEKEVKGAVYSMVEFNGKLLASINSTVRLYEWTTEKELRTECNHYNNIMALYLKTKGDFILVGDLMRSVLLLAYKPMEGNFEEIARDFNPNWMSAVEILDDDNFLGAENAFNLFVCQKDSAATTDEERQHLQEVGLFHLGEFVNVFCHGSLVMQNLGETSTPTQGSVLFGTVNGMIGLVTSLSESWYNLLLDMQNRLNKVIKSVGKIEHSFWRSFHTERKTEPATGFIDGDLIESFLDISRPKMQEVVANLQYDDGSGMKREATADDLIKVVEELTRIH
T2 sequence (P50750 whole entry): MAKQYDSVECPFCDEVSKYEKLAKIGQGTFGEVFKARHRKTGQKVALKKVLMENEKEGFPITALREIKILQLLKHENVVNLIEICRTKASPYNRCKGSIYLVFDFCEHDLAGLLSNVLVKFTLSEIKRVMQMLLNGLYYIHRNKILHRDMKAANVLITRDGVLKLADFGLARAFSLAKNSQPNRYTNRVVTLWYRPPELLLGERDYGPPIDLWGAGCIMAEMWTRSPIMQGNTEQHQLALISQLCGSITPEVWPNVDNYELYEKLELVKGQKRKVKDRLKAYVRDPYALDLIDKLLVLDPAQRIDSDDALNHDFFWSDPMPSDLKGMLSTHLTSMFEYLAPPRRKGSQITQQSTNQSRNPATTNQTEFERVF
T2 sequence (O60563 whole entry partner): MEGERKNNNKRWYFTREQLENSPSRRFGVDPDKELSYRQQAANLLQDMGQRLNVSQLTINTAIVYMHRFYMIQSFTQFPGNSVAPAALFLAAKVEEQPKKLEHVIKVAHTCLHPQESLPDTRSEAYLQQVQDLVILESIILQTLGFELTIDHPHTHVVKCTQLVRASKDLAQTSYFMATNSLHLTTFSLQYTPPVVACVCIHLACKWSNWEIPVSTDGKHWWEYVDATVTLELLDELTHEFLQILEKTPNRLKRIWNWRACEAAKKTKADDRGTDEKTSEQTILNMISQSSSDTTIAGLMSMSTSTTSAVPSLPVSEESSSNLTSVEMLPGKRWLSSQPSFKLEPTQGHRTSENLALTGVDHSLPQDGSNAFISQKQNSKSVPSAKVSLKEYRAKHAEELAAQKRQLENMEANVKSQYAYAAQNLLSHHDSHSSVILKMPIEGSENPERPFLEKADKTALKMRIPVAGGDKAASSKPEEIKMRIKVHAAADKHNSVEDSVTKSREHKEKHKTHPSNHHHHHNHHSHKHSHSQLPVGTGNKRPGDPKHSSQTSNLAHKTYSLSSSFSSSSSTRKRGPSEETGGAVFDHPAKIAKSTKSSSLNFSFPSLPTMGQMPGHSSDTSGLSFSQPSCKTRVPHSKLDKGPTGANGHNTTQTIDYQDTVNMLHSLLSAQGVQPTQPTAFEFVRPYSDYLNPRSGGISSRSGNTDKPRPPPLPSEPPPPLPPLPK
Sequence of CDK12–cyclin K (Q9NYV4 713-1052): as the sequence (Q9NYV4 713-1052 K965R) above, with R253K counted along it
Sequence of CDK12–cyclin K (O75909 1-267 partner limits assumed): as the sequence (O75909 1-267 partner) above

In the case of `CC(C)n1cnc2c(NCc3nc4cc(Cl)c(Cl)cc4[nH]3)nc(N3CCOCC3)nc21` [DS18], the “TR-FRET signal at compound concentration 0.468 nM” value ([1]; compound concentration 0.468 nM, raw replicate titration data) is reported as 0.2789 and 0.2869 and 0.2441 and 0.2388, the “TR-FRET signal at compound concentration 2.16 nM” value ([1]; compound concentration 2.16 nM, raw replicate titration data) is reported as 0.4628 and 0.4735 and 0.4069 and 0.4155 and the “TR-FRET signal at compound concentration 3.6 nM” value ([1]; compound concentration 3.6 nM, raw replicate titration data) is reported as 0.8592 and 0.9781 and 0.8008 and 0.8631. The “TR-FRET signal at compound concentration 7.92001 nM” value ([1]; compound concentration 7.92001 nM, raw replicate titration data) was 1.943 and 2.09 and 1.796 and 1.964, the “TR-FRET signal at compound concentration 15.84 nM” value ([1]; compound concentration 15.84 nM, raw replicate titration data) was 3.635 and 3.77 and 3.448 and 3.586 and the “TR-FRET signal at compound concentration 30.96 nM” value ([1]; compound concentration 30.96 nM, raw replicate titration data) was 4.1538 and 4.3056 and 4.1745 and 4.207. The “TR-FRET signal at compound concentration 62.6401 nM” value ([1]; compound concentration 62.6401 nM, raw replicate titration data) was 4.1015 and 4.249 and 4.2539 and 4.27, the “TR-FRET signal at compound concentration 125.28 nM” value ([1]; compound concentration 125.28 nM, raw replicate titration data) was 4.175 and 4.298 and 4.2336 and 4.275 and the “TR-FRET signal at compound concentration 244.8 nM” value ([1]; compound concentration 244.8 nM, raw replicate titration data) was 4.152 and 4.298 and 4.309 and 4.217. For the same compound, the “TR-FRET signal at compound concentration 993.601 nM” value ([1]; compound concentration 993.601 nM, raw replicate titration data) was 4.169 and 4.339 and 4.296 and 4.306, the “TR-FRET signal at compound concentration 2001.6 nM” value ([1]; compound concentration 2001.6 nM, raw replicate titration data) was 4.114 and 4.419 and 4.291 and 4.3409 and the EC50 ([1]; in vitro complex formation, 50 nM CDK12–cyclin K, 100 nM DDB1, text and figures) was 9 ± 0.2 nM. For the same compound, the EC50 ([1]; source data sheet correlations) was 8.77 nM, the DC50 [2] was 13 nM and the EC50 ([3]; Homo sapiens, HEK-293T, HEK293T viability, 72 h, compound alone, read-out: Cellular assays EC50) was 101 nM. For the same compound, the Toxicity rescue ([3]; MLN4924-mediated cytotoxicity rescue, 10 µM used where n.d.) was 89%, the “CDK inhibitory selectivity, result in words” value ([4]; Lanthascreen across CDK2/9/12) was “CDK12 selective” and the IC50 ([4]; Supplementary Table 2, read-out: Lanthascreen IC50 [nM] CDK12) was 289 nM. For the same compound, the “Lanthascreen raw signal, sheet CDK12” value ([4]; compound 0.038147 nM) was 0.01361 and 0.01362, the “Lanthascreen raw signal, sheet CDK12” value ([4]; compound 0.152588 nM) was 0.01347 and 0.01332 and the “Lanthascreen raw signal, sheet CDK12” value ([4]; compound 0.610352 nM) was 0.0127 and 0.0128. The “Lanthascreen raw signal, sheet CDK12” value ([4]; compound 9.76563 nM) was 0.01118 and 0.01013, the “Lanthascreen raw signal, sheet CDK12” value ([4]; compound 39.0625 nM) was 0.009017 and 0.009485 and the “Lanthascreen raw signal, sheet CDK12” value ([4]; compound 156.25 nM) was 0.008554 and 0.0083. For the same compound, the “Lanthascreen raw signal, sheet CDK12” value ([4]; compound 625 nM) was 0.007301 and 0.007453, the “Lanthascreen raw signal, sheet CDK12” value ([4]; compound 2500 nM) was 0.006348 and 0.005959 and the “Lanthascreen raw signal, sheet CDK12” value ([4]; compound 10000 nM) was 0.004442 and 0.004613. For the same compound, the IC50 ([5]; Supplementary Table 2, read-out: Lanthascreen IC50 [nM] CDK9) was 4480 nM, the “Lanthascreen TR-FRET signal (raw ratio), sheet CDK9” value ([5]; compound 0.038147 nM) was 0.02012 and 0.0204 and the “Lanthascreen TR-FRET signal (raw ratio), sheet CDK9” value ([5]; compound 0.152588 nM) was 0.02154 and 0.01902. For the same compound, the “Lanthascreen TR-FRET signal (raw ratio), sheet CDK9” value ([5]; compound 0.610352 nM) was 0.02155 and 0.01817, the “Lanthascreen TR-FRET signal (raw ratio), sheet CDK9” value ([5]; compound 9.76563 nM) was 0.02115 and 0.01877 and the “Lanthascreen TR-FRET signal (raw ratio), sheet CDK9” value ([5]; compound 39.0625 nM) was 0.01878 and 0.01673. For the same compound, the “Lanthascreen TR-FRET signal (raw ratio), sheet CDK9” value ([5]; compound 156.25 nM) was 0.02006 and 0.01591, the “Lanthascreen TR-FRET signal (raw ratio), sheet CDK9” value ([5]; compound 625 nM) was 0.01306 and 0.01486 and the “Lanthascreen TR-FRET signal (raw ratio), sheet CDK9” value ([5]; compound 2500 nM) was 0.01488 and 0.01061. For the same compound, the “Lanthascreen TR-FRET signal (raw ratio), sheet CDK9” value ([5]; compound 10000 nM) was 0.007693 and 0.006879, the “Lanthascreen signal, sheet CDK2” value ([6]; Compound 0.038147 nM) was 0.01344 and 0.01366 and the “Lanthascreen signal, sheet CDK2” value ([6]; Compound 0.152588 nM) was 0.01349 and 0.01367. The “Lanthascreen signal, sheet CDK2” value ([6]; Compound 0.610352 nM) was 0.01404 and 0.01386, the “Lanthascreen signal, sheet CDK2” value ([6]; Compound 9.76563 nM) was 0.01422 and 0.01378 and the “Lanthascreen signal, sheet CDK2” value ([6]; Compound 39.0625 nM) was 0.01396 and 0.01343. The “Lanthascreen signal, sheet CDK2” value ([6]; Compound 156.25 nM) was 0.01511 and 0.01391, the “Lanthascreen signal, sheet CDK2” value ([6]; Compound 625 nM) was 0.01354 and 0.01331 and the “Lanthascreen signal, sheet CDK2” value ([6]; Compound 2500 nM) was 0.01311 and 0.01172. The “Lanthascreen signal, sheet CDK2” value ([6]; Compound 10000 nM) was 0.009843 and 0.008946 and the IC50 ([6]; Supplementary Table 2, read-out: Lanthascreen IC50 [nM] CDK2) was 5730 nM.
